# Patent US20250250629A1, “NUCLEOTIDE CYCLIC CLEAVABLE MOIETIES AND USES THEREOF” (Singular Genomics Systems, Inc., priority 2022, published 2025)
# Assay: Storage stability of reversibly terminated nucleotides (percentage of deblocked nucleotides, in-house assay)
# Type: physicochemical
# Conditions: for percentage of deblocked nucleotides (3′-OH, loss of reversible terminator) over time: stored at 20° C. over 21 days (vs. 4° C.)
# Description: FIGS. 1A-1B depict storage stability studies of nucleotides stored at both 4° C. and 20° C. over a period of 21 days. The stability of the reversibly terminated nucleotide can be measured by the % of nucleotides that lose the reversible terminator moiety (e.g., via spontaneous fragmentation or reduction to yield a 3′-OH). […] (black) and 20° C. (light). […] (black) and 20° C. (light).
# The stability of a reversibly terminated nucleotide can be measured by determining the loss of the reversible terminator over time. FIGS. 1A-1B depict the storage stability of nucleotides having a linear disulfide RT and cyclic disulfide RT stored at both 4° C. and 20° C. over a period of 21 days. The linear disulfide RT tested has the structure:
# A buffer containing 200 nM of each nucleotide was stored at 4° C. and 20° C. over a period of 21 days and the percentage of deblocked nucleotides (i.e., those having loss of 3′-OH reversible terminator) was determined using an in-house assay. The stability of the reversibly terminated nucleotide can be measured by the % of nucleotides that lose the reversible terminator moiety (e.g., via spontaneous fragmentation or reduction to yield a 3′-OH). […] (black) and 20° C. (light). […] (black) and 20° C. (light). As observed in FIG. 1A, the average percentage of reversible terminator loss is about 0.13%+/−0.05% when stored at 4° C., and is considered relatively stable when stored under these conditions. […] Subsequent storage stability studies indicate the nucleotides are stable, wherein the average percentage of reversible terminator loss is less than about 0.15%, beyond 120 days at both 20° C. and 4° C.
# [1] = buffer containing 200 nM nucleotide
"average percentage of reversible terminator loss (buffer containing 200 nM nucleotide, stored at 4° C. over 21 days)","average percentage of reversible terminator loss (subsequent storage stability studies, beyond 120 days at 4° C.)","average percentage of reversible terminator loss (subsequent storage stability studies, beyond 120 days at 20° C.)",SMILES,"percentage of deblocked nucleotides (3′-OH, loss of reversible terminator) over time [1]"
about 0.13%+/−0.05,–,–,"CSSC(C)OC1CC(n2cc(C)c(=O)[nH]c2=O)OC1COP(=O)(O)OP(=O)(O)OP(=O)(O)O (centres unmarked) [linear disulfide RT, reference compound]",grows over time
–,less than 0.15%,less than 0.15%,Cc1cn(C2CC(OC3CCCSS3)C(COP(=O)(O)OP(=O)(O)OP(=O)(O)O)O2)c(=O)[nH]c1=O (centres unmarked) [cyclic disulfide RT],less prone to spontaneously losing the 3′ reversible terminator
